Measurements as given in patent US11472844B2, “Peptidomimetics, method of synthesis and uses thereof” (priority 2017, dated 2022).
Entries after “also recorded” stand apart in the source; their conditions may differ. Non-standard residues stand in square brackets, D forms with d. *: point of attachment. X1 = CC[N+]1=C(/C=C/C=C/C=C2N(CCCCCC(=O)NCCN3C(=O)CC(*)C3=O)c3ccc(S(=O)(=O)O)cc3C2(C)C)C(C)(C)c2cc(S(=O)(=O)[O-])ccc21

Columns and labels:
[1] = tested on: mucus produced by human cell lines (L174T); assay: Binding to mucus produced by human cell lines; format: cell-based
[2] = tested on: living human neutrophils; assay: Live microscopy of neutrophils infected with Shigella flexneri; format: cell-based
Description: Neutrophil infection. Human purified neutrophils were cultured in glass-bottom dishes (Mattek) for live fluorescent microscopy in a RMPI 1640 (Life Technologies) culture medium supplemented with 10% of heat inactivated Human Serum (Sigma-Aldrich). Neutrophils (5.10^5 cell/mL in 2 mL) were infected with exponentially-grown Shigella flexneri 5a pGFP at a Multiplicity Of Infection (MOI) 20 in RMPI 1640 (Life Technologies) culture medium supplemented with 10 mM Hepes (Life Technologies) at 37° C. Infected neutrophils were centrifuged at 2000 rpm for 10 min prior imaging.
Live epifluorescence microscopy. Viable neutrophils infected with S. flexneri pGFP were imaged on a Definite focus live microscope (Zeiss) equipped with a temperature control chamber (37° C.) and a 63× oil immersion objective. Images were acquired every 60 s. Z-stack images were taken with […] step-size increments. Obtained Z-stack images were processed with Fiji software to generate a Movie and the corresponding extracted images are shown in FIG. 16a.

[3] = tested on: inflammatory sites, localized in joints; assay: Mouse arthritis model (K/B×N serum transfer), in vivo epifluorescence imaging
Description: Mouse arthritis model. 6-7 weeks old female C57BL/6J mice were purchased from Charles River France, housed under specific pathogen-free (SPF) conditions and handled in accordance with French and European directives. Mouse protocols were approved by the Animal Ethics committee CETEA number 89 (Institut Pasteur, Paris, France) and registered under #2013-0103, and by the French Ministry of Research under agreement #00513.02. Arthritis was induced by i.v. injection of 120 μL K/B×N serum and arthritis scored as described previously (Bruhns et al. 2003). Mice injected with physiological saline were used as controls. On day 6 after serum transfer, mice were anesthetized, shaved, depilated and injected i.p. with luminol (10 mg/mouse) and i.v. with 5 μg/mouse MUB-40 Cy5. Epifluorescence, bioluminescence and CT images were acquired 10-90 min after injection using an IVIS SpectrumCT (Perkin Elmer).

[4] = tested on: human colonic mucus; assay: Fluorescent labelling of human colonic mucus layer; format: binding; conditions: 1 μg/mL
Description: Colon explant surgical collection. In summary, human colon segments (ascending, descending, and sigmoid colon) were obtained from fully informed patients undergoing surgery for colon carcinoma and were analyzed anonymously. Patient written consent was obtained, according to the French bioethics law. None of the patients had undergone radiotherapy or chemotherapy. According to the pathologist's examination rules for the longitudinally bisected colon, a healthy segment of tissue, which was distant from the tumor region and devoid of metastatic cells, was removed. Tissues were processed according to the French Government guidelines for research on human tissues and the French Bioethics Act with the authorization no RBM 2009-50.
Fixation and staining procedures. For microscopy studies, purified or cultured cells and polymerized lactoferrin were resuspended onto 24-well plates containing 12 mm coverslips in RMPI 1640+10 mM Hepes (when cultured in the autologous plasma) and centrifuged at 300×g for 10 min. Culture media were removed and cells were fixed in 4% Paraformaldehyde (PFA) for two hours. Fixed cells were washed three times in PBS+0.1% saponin (Sigma-Aldrich), prior immunolabeling with primary antibodies in the same buffer for 1 hour (Triton 0.1% can alternatively be used for cell permeabilization). After three additional washes in PBS+0.1% saponin, secondary antibodies and fluorescent markers were incubated for one hour. […]
Antibodies, fluorescent markers. For immunofluorescence assay, lactoferrin was detected with a mouse anti-lactoferrin primary monoclonal antibody (Hycult biotech, clone 265-1K1, 1:50 dilution) and an anti-mouse-FITC conjugated secondary antibody (1:1000). Nuclei were detected with DAPI (Life Technologies), Lyophilized MUB40 peptides (MUB40#1 (SEQ ID NO: 3)-Cy5, MUB40#2 (SEQ ID NO: 4)-Cy5, MUB40#3 (SEQ ID NO: 5)-Cy5, MUB40#4 (SEQ ID NO: 6)-Cy5, MUB40#1 (SEQ ID NO: 3)-Dylight, RI-MUB40 (SEQ ID NO: 2)-Cy5, and RI-MUB40 (SEQ ID NO: 2)-Biotin) were solubilized in a phosphate buffer pH8 at a 1 mg/mL concentration and used at a 1:1000 dilution. […]

[5] = tested on: human neutrophil granules; assay: Fluorescent labelling of fixed purified human neutrophils; format: cell-based; conditions: 1 μg/mL
Description: Fixation and staining procedures. For microscopy studies, purified or cultured cells and polymerized lactoferrin were resuspended onto 24-well plates containing 12 mm coverslips in RMPI 1640+10 mM Hepes (when cultured in the autologous plasma) and centrifuged at 300×g for 10 min. Culture media were removed and cells were fixed in 4% Paraformaldehyde (PFA) for two hours. Fixed cells were washed three times in PBS+0.1% saponin (Sigma-Aldrich), prior immunolabeling with primary antibodies in the same buffer for 1 hour (Triton 0.1% can alternatively be used for cell permeabilization). After three additional washes in PBS+0.1% saponin, secondary antibodies and fluorescent markers were incubated for one hour. Coverslips were washed three time in PBS+0.1% saponin, three times in PBS, and three times in deionized H2O and mounted with prolong gold^tm mounting media.
Antibodies, fluorescent markers. For immunofluorescence assay, lactoferrin was detected with a mouse anti-lactoferrin primary monoclonal antibody (Hycult biotech, clone 265-1K1, 1:50 dilution) and an anti-mouse-FITC conjugated secondary antibody (1:1000). Nuclei were detected with DAPI (Life Technologies), Lyophilized MUB40 peptides (MUB40#1 (SEQ ID NO: 3)-Cy5, MUB40#2 (SEQ ID NO: 4)-Cy5, MUB40#3 (SEQ ID NO: 5)-Cy5, MUB40#4 (SEQ ID NO: 6)-Cy5, MUB40#1 (SEQ ID NO: 3)-Dylight, RI-MUB40 (SEQ ID NO: 2)-Cy5, and RI-MUB40 (SEQ ID NO: 2)-Biotin) were solubilized in a phosphate buffer pH8 at a 1 mg/mL concentration and used at a 1:1000 dilution. For PBMC staining CD19-APC (B lymphocytes), CD3-APC (T lymphocytes), and CD14-PercP (monocytes, macrophages) (BD Bioscience) were used at a 1:1000 dilution together with Dapi (1:1000) and MUB40-Cy5 (1 mg/mL). Actin was stained with Phalloidin-Rhodamine red X (RRX) (Jackson Immunoresearch Antibodies) used at a 1:1000 final dilution.
Polymorphonuclear neutrophils purification. Human polymorphonuclear neutrophils were purified as described previously (Monceaux et al. 2016). Briefly, plasma was removed by centrifugation (450×g, 15 min); blood cells were resuspended in 0.9% NaCl solution supplemented with 0.72% Dextran. After red blood cells sedimentation, white blood cells were pelleted and further separated on a two layer Percoll (GE Healthcare) (51%−42%) by centrifugation (at 240×g, 20 min). PBMC (top layer) were isolated from polymorphonuclear neutrophils (bottom layer). Red blood cells were removed from the latter fraction using CD235a (glycophorin) microbeads (negative selection) (Miltenyi Biotec). PBMCs and polymorphonuclear neutrophils were resuspended in the autologous plasma. Guinea pig and mouse polymorphonuclear neutrophils were purified with the same procedure.
Confocal microscopy. […]

[6] = tested on: hind and front inflamed ankles; assay: K/B×N mice, ankle fluorescence imaging after intravenous injection; format: in vivo, mouse; conditions: 2 days post i.v. injection of 0.9 nmoles; p<0.01 vs MUB40-Cy5, p<0.001 vs Cy5 only
Description: (A) Ankles of K×B/N mice were imaged 2 Days after intravenous injection of 0.9 nmoles of RI-MUB40-Cy5 (SEQ ID NO: 2), MUB40-Cy5 (SEQ ID NO: 3) or Cy5 only. Fluorescence was quantified at the level of front or hind ankles (in ROI, as indicated).
(B) Quantification of the fluorescent signal associated with RI-MUB40 (SEQ ID NO: 2)-Cy5, MUB40 (SEQ ID NO: 3)-Cy5 or Cy5 accumulation at hind and front ankles (top) or hind ankles only (bottom). Results are average from at least three animals. ** indicates p<0.01 and *** indicates p<0.001 (Student's T-test).

[7] = target: trypsin (Sus scrofa, UniProt P00761); conditions: trypsin digestion, 37°C, pH8, followed up to 24 h
Description: Trypsin proteolysis. MUB40 (SEQ ID NO: 3)-Cy5 and RI-MUB40 (SEQ ID NO: 2)-Cy5 were dissolved in 50 mM ammonium bicarbonate, pH 8. Prior to digestion and owing to the propensity of maleimide derivatives to undergo ring-opening in a basic environment (Fontaine et al., 2015), we incubated both peptides at 37° C. overnight. Ring-opening completion was checked before trypsin addition. […] Lyophilized trypsin (Thermo scientific) was reconstituted using 50 mM acetic acid, diluted with 50 mM ammonium bicarbonate and added to the peptide solution so as to obtain a final peptide concentration of 0.25 mg/mL and a protease to protein ratio of 1:20 (w/w). Samples were directly incubated on the injection sampler thermostated at 37° c. HPLC and LC-MS analyses were performed as previously described above, applying a 15% to 40% linear gradient of acetonitrile in 10 mM ammonium acetate over 20 minutes.
Hydrolysis experiments were done in solution at 37° c., pH8 and monitored by HPLC by measuring the peak area of the remaining intact peptides.

trypsin, sequence (P00761 9-231): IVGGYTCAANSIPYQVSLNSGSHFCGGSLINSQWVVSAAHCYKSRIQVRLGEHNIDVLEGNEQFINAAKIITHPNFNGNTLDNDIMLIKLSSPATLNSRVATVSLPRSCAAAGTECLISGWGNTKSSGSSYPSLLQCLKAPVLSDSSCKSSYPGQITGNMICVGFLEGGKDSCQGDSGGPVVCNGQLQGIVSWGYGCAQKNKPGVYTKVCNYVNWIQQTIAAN

Ac-[dC](X1)[dF][dI][dV][dT][dY][dF][dQ][dD][dN][dT][dD][dD][dN][dD][dF][dK][dE]G[dA][dP][dF][dN][dD][dK][dF][dL][dE][dY]G[dD]G[dE][dF][dK][dK][dI]G[dE][dA][dT]-NH2 [Cy5-RI-MUB40]
binding to mucus produced by human cell lines (L174T) [1]: validated | detection of lactoferrin degranulation on living neutrophils ([2]; Shigella flexneri MOI 20, 1 μg/mL, 37°C): transient, dot-shaped fluorescent signals were detected on the cells' surface | crossing of plasma membrane of living cells ([2]; live cells, listed as RI-MUB40-Cy5): did not cross the plasma membrane of living cells; also recorded: does not cross plasma membrane of live cells | relation of epifluorescent signal to luminol bioluminescent signal ([3]; hind ankle joints, p≤0.0001): correlated | accumulation of fluorescent signal at inflammatory sites ([3]; i.v. injection, arthritic mice but not naïve controls, day 6): a fluorescent signal accumulated at inflammatory sites | epifluorescent signal, arthritic mice vs controls ([3]; p≤0.0001, T-test): significantly higher in arthritic mice compared to controls | labelling of / binding to human colonic mucus [4]: validated | labelling of human neutrophil granules [5]: validated | fluorescent signal accumulation at hind and front inflamed ankles [6]: significantly higher compared to MUB40-Cy5 | degradation by trypsin (in words) [7]: no degradation
